Laboratory results as given in PubChem BioAssay (NCI).
Where “and” joins values, the source holds several entries; their conditions need not be identical. Identical values can stand only once.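 Tested at 5 concentrations; 48 h exposure; 96-well plates; endpoints linearly interpolated, else capped at highest concentration. At the GI50, growth is halved. TGI: total growth inhibition.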

Legend:
Assay in all cases: DTP human tumour cell line panel, 48 h
PC-3 prostate = test system: PC-3 prostate
T-47D breast = test system: T-47D breast
SNB-78 CNS = test system: SNB-78 CNS
DLD-1 colon = test system: DLD-1 colon
HOP-18 NSCLC = test system: HOP-18 NSCLC
RXF-631 renal = test system: RXF-631 renal
DMS 273 small cell lung = test system: DMS 273 small cell lung
MDA-N = test system: MDA-N

| Compound | GI50 (PC-3 prostate) | TGI (PC-3 prostate) | GI50 (T-47D breast) | TGI (T-47D breast) | TGI (SNB-78 CNS) | TGI (DLD-1 colon) | also measured |
| --- | --- | --- | --- | --- | --- | --- | --- |
| CNc1ccc(CSc2ccc(C)cc2)cc1 | 13.2 µM | > 100 µM | 13.5 µM | > 100 µM | – | – | – |
| COc1cc2ccc(CC(=O)O)cc2cc1OC | – | – | – | – | > 100 µM | > 100 µM | TGI (HOP-18 NSCLC): > 100 µM; TGI (RXF-631 renal): > 100 µM; TGI (DMS 273 small cell lung): > 100 µM |
| CC1(C)O[C@@H](CCl)C[C@@H](C#N)O1 | – | – | – | – | > 100 µM | > 100 µM | TGI (HOP-18 NSCLC): > 100 µM; TGI (DMS 273 small cell lung): > 100 µM |
| CC(C)(C)OC(=O)CC(S(=O)(=O)c1ccccc1)S(=O)(=O)c1ccccc1 | 15.1 µM | 29.7 µM | 2.32 µM | 4.48 µM | – | – | – |
| CC(C)(C)c1cnc(CSc2cnc(NC(=O)C3CCNCC3)s2)o1 | 0.21 µM and 0.19 µM | 2.81 µM and > 9 µM | 0.251 µM and 0.225 µM | 0.847 µM and > 4.35 µM | – | – | – |
| CN(C)CCC(/C=C/c1ccccc1)=N\Nc1c(F)c(F)c(F)c(F)c1F | – | – | – | – | > 100 µM | > 100 µM | TGI (HOP-18 NSCLC): > 100 µM; TGI (DMS 273 small cell lung): > 100 µM |
| CCOc1ccccc1NC(=O)C1=C(C)NC(C)=C(C(=O)Nc2ccccc2OCC)C1c1ccc2c(c1)OCO2 | – | – | – | – | 95.6 µM | > 100 µM | – |
| Clc1ccc(/C=C/c2csnn2)cc1 | – | – | – | – | > 100 µM | > 100 µM | TGI (HOP-18 NSCLC): > 100 µM; TGI (DMS 273 small cell lung): > 100 µM |
| CN1CCC(C(=O)Nc2n[nH]c3nnc(-c4ccccc4)cc23)CC1 | > 22.7 µM | > 25 µM | > 25 µM | > 25 µM | – | – | – |
| Cc1cc(=O)[nH]c2c1C(=O)c1c(C)cc(=O)n(C)c1C2=O | – | 0.391 µM | – | 0.848 µM | – | – | TGI (MDA-N): 0.0331 µM |
| Cc1nc2sc(C(=O)Nc3cccc(Cl)c3)c(N)c2cc1C(O)c1ccccc1 (configuration not stated) | 2.78 µM | 25.1 µM | 0.997 µM | 33 µM | – | – | – |
| O=C(NCCOC(=O)CCCCCCCCC(=O)OCCNC(=O)NC(=O)c1cn(Cc2ccccc2)c(=O)[nH]c1=O)NC(=O)c1cn(Cc2ccccc2)c(=O)[nH]c1=O | – | – | – | – | > 100 µM | > 100 µM | TGI (DMS 273 small cell lung): > 100 µM |
| NCC[PH+](c1ccccc1)c1ccccc1.NCC[PH+](c1ccccc1)c1ccccc1.[Cl-].[Pt+4] | > 100 µM | > 100 µM | > 100 µM | > 100 µM | – | – | GI50 (MDA-N): > 100 µM; TGI (MDA-N): > 100 µM |
| Clc1cc(Cl)cc(Nc2ccc3c(OCCCN4CCOCC4)cccc3n2)c1 | 1.94 µM | 4.69 µM | 4.91 µM | 18.2 µM | – | – | – |
| CC1(C)N=C(N)N=C(N)N1c1ccc(CCCCCCc2ccc(S(=O)(=O)F)cc2)cc1 | – | 15.4 µM | – | 52 µM | – | – | – |
| COc1cc2c(cc1OC)C(Sc1ccc(Cl)cc1)c1c(nc(N)c(C#N)c1N)O2 (configuration not stated) | 1.56 µM | 3.07 µM | 1.29 µM | 3.65 µM | – | – | – |
| COc1ccc(-c2nn(-c3cccc(Cl)c3)cc2-c2c(C#N)c(=O)n3[nH]c(-c4ccc(C)o4)nc3c2C#N)cc1 | 2.25 µM | > 50 µM | 2.77 µM | 33.8 µM | – | – | – |
| COc1cc(COC(=O)N(C)[C@@H](Cc2ccccc2)C(=O)O)c([N+](=O)[O-])cc1OC | – | > 100 µM | – | > 100 µM | – | – | TGI (MDA-N): > 100 µM |

| Compound | GI50 (PC-3 prostate) | TGI (PC-3 prostate) | GI50 (T-47D breast) | TGI (T-47D breast) | TGI (SNB-78 CNS) | TGI (DLD-1 colon) | also measured |
| --- | --- | --- | --- | --- | --- | --- | --- |
| CC1(O)CC2C(CC1SCc1ccccc1)C2(C)C (configuration not stated) | – | – | – | – | > 100 µM and 34.9 µM | > 100 µM and 30.2 µM | GI50 (SNB-78 CNS): 76.7 µM and 17.9 µM; GI50 (DLD-1 colon): 42.4 µM and 16.6 µM; TGI (DMS 273 small cell lung): 33.1 µM and 29.2 µM |
| c1ccc2c(c1)n1nnnc1c1nnnn21 | – | – | – | – | > 100 µM | > 100 µM | TGI (RXF-631 renal): > 100 µM; TGI (DMS 273 small cell lung): > 100 µM |
| O=C(N[C@H]1CC2(C=C(I)C(=O)C(I)=C2)OC1=O)OCc1ccccc1 | – | – | – | – | 33.5 µM | 32.8 µM | TGI (RXF-631 renal): 30.8 µM |
| CCCCCCC1CCCCN1C(c1ccccc1)C(O)c1ccccc1 (configuration not stated) | 6.93 µM | 20.6 µM | 4.68 µM | 19.1 µM | – | – | – |
| O=[N+]([O-])/C(=C/C=C/c1ccccc1)c1ccccc1 | 1.88 µM | 4.29 µM | 2.07 µM | 5.28 µM | – | – | – |
| CCOc1ccc(N=Nc2c(-c3ccccc3)nn(C(=O)CC(=O)Nc3ccccc3Cl)c2-c2ccccc2)cc1 | – | – | – | – | > 100 µM | > 100 µM | TGI (HOP-18 NSCLC): > 100 µM; TGI (DMS 273 small cell lung): > 100 µM |
| CN(Cc1cnc2nc(N)nc(N)c2n1)c1c(Cl)cc(C(=O)NC(CCC(=O)O)C(=O)O)cc1Br (configuration not stated) | < 0.01 µM | > 80.1 µM | 0.261 µM | > 100 µM | – | – | – |
| COc1cc([N+](=O)[O-])c(S(=O)(=O)O)cc1-[n+]1nc(C(=O)Nc2ccccc2)nn1-c1ccc([N+](=O)[O-])c(S(=O)(=O)[O-])c1 | – | > 100 µM | – | > 100 µM | – | – | TGI (MDA-N): > 100 µM |
| O=C(/C=C/c1ccccn1)c1ccccc1 | 4.22 µM | 17 µM | 4.87 µM | 24.4 µM | – | – | – |
| CNC(=O)N(CCCCC(NC(C)=O)C(=O)NCc1ccccc1)Cc1ccccc1 (configuration not stated) | – | – | – | – | > 100 µM | > 100 µM | TGI (RXF-631 renal): > 100 µM; TGI (DMS 273 small cell lung): > 100 µM |
| COc1ccc(S(=O)(=O)NNS(C)(=O)=O)cc1OC | – | – | – | – | – | > 100 µM | TGI (DMS 273 small cell lung): > 100 µM |
| COc1cc(C(=O)/C=C/c2c(C)n([O-])c3ccc(Cl)cc3[n+]2=O)cc(OC)c1OC | 26.9 µM | > 100 µM | 3.18 µM | 27.9 µM | – | – | – |
| Cc1ncc([N+](=O)[O-])n1CCOc1ccc(C(=O)/C=C/c2ccc(C(F)(F)F)cc2)cc1 | 2.25 µM | 12.2 µM | – | – | – | – | – |
| O=C([CH-]C(=O)c1ccccc1)c1ccccc1.[CH2-]C.[CH2-]C.[Tl+3] | 32 µM | > 100 µM | 17 µM | > 100 µM | – | – | GI50 (HOP-18 NSCLC): 28.5 µM; TGI (HOP-18 NSCLC): > 100 µM |
| Cc1cc(N(CCC#N)CCC#N)ccc1/C=C1N=C(/C=C\c2ccccc2)N(c2ccc(C(=O)O)cc2)C\1=O | – | – | – | – | > 100 µM | > 100 µM | TGI (HOP-18 NSCLC): > 100 µM; TGI (RXF-631 renal): > 100 µM |
| Cn1cc(C2=C(c3cccc([N+](=O)[O-])c3)C(=O)NC2=O)c2ccccc21 | 5.61 µM | > 25 µM | 6.32 µM | 19.4 µM | – | – | – |
| CC(C)OC(=O)c1cc(NC(=S)OC(C)C)ccc1Cl | – | 50.9 µM | – | > 57.6 µM | – | – | TGI (MDA-N): 50 µM |
